Laboratory results reported in patent publication US7816400B2 (The University of Hong Kong, priority 2007, dated 2010).
Where two headings read alike, the source gives them in different places.

Tests used:
human atrial myocytes = test: Action potential in human atrial myocytes, perforated patch, current clamp; type: cell-based
Kv1.5 = target: T1, Kv1.5 (Homo sapiens, UniProt P22460); test: Kv1.5 channel block in stably expressing HEK 293 cells; type: cell-based
T1 construct: expressed in transfected cells
Description: The established HEK 293 cell lines stably expressing the hERG channel gene, Kv1.5 (Tang et al., 2007), or recombinant human cardiac KCNQ1/KCNE1 channel current (IKs) (Dong et al., 2006) was maintained separately in Dulbecco's modified eagle medium (Invitrogen) supplemented with 10% fetal bovine serum and containing 400 μg/ml G418 (for hERG or Kv1.5 channels) or 100 μg/ml hygromycin (for IKs).
The whole-cell patch-clamp technique was used for electrophysiological recording. Borosilicate glass electrodes (1.2-mm OD) were pulled with a Brown-Flamming puller (model P-97, Sutter Instrument Co, Novato, Calif., USA) and had tip resistances of 2-3 MΩ when filled with pipette solution. Membrane currents were recorded in voltage-clamp mode using an EPC-9 amplifier and Pulse software (HEKA, Lambrecht, Germany). A 3-M KCl-agar salt bridge was used as reference electrode. The tip potentials were compensated before the pipette touched the cell. After a giga-ohm seal was obtained, the cell membrane was ruptured by gentle suction to establish the whole-cell configuration. The cell membrane capacitance (pF) was directly measured using the lock-in module of the Pulse software, and used for normalizing the current in individual cells. The series resistance (Rs) was 3-5 MΩ and was compensated by 50-70% to minimize voltage errors. Perforated patch configuration was used for recording action potential in human atrial cells and IKs in HEK 293 cells as described previously (Li et al., 2002b; Dong et al., 2006). Current signals were low-pass filtered at 5 kHz and stored on the hard disk of an IBM compatible computer.
Other derivatives/analogs studied have no effect or a week inhibitory effect on Kv1.5.

hERG channels = hERG channels (Homo sapiens, UniProt Q12809); test: cell-based
isolated rabbit hearts = test: ECG (heart rate, QTc) in isolated hypokalemic rabbit hearts, Langendorff; settings: 10 μM, hypokalemic (3 mM K+) perfusion
anesthetized dogs [1] = test: Experimental vagotonic AF in anesthetized dogs; type: in vivo, dog
anesthetized dogs [2] = test: In vivo electrophysiology (atrial ERP, QTc) in anesthetized dogs; parameters: species or system dog; settings: 5 mg/kg intraduodenal
[3] = HEK293, HEK 293 cells stably expressing Kv1.5, Table 3, read-out: Kv1.5 (IC50)
[4] = HEK 293 cells stably expressing Kv1.5, Table 3, read-out: Kv1.5 (IC50)
[5] = BCL 200 ms, pre-treatment (baseline)
[6] = BCL 250 ms, pre-treatment (baseline)

T1 sequence (P22460 whole entry): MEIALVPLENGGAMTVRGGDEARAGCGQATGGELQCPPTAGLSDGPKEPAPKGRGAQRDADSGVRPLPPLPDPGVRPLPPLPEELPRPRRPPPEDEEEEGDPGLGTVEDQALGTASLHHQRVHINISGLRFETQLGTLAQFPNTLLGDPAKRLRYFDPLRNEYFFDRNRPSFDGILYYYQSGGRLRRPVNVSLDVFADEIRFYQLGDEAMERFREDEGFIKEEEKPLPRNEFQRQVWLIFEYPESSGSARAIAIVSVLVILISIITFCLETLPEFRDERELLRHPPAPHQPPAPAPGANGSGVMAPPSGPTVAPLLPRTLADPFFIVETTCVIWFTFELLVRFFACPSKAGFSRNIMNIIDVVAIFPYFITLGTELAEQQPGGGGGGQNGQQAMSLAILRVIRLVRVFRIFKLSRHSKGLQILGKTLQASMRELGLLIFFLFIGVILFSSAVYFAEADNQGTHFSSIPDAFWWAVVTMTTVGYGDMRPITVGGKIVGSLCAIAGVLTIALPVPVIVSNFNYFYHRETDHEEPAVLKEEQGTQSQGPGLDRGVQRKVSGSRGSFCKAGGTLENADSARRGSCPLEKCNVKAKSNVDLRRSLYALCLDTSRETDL
Chain of hERG channels (Q12809 whole entry, the tested form may be a part): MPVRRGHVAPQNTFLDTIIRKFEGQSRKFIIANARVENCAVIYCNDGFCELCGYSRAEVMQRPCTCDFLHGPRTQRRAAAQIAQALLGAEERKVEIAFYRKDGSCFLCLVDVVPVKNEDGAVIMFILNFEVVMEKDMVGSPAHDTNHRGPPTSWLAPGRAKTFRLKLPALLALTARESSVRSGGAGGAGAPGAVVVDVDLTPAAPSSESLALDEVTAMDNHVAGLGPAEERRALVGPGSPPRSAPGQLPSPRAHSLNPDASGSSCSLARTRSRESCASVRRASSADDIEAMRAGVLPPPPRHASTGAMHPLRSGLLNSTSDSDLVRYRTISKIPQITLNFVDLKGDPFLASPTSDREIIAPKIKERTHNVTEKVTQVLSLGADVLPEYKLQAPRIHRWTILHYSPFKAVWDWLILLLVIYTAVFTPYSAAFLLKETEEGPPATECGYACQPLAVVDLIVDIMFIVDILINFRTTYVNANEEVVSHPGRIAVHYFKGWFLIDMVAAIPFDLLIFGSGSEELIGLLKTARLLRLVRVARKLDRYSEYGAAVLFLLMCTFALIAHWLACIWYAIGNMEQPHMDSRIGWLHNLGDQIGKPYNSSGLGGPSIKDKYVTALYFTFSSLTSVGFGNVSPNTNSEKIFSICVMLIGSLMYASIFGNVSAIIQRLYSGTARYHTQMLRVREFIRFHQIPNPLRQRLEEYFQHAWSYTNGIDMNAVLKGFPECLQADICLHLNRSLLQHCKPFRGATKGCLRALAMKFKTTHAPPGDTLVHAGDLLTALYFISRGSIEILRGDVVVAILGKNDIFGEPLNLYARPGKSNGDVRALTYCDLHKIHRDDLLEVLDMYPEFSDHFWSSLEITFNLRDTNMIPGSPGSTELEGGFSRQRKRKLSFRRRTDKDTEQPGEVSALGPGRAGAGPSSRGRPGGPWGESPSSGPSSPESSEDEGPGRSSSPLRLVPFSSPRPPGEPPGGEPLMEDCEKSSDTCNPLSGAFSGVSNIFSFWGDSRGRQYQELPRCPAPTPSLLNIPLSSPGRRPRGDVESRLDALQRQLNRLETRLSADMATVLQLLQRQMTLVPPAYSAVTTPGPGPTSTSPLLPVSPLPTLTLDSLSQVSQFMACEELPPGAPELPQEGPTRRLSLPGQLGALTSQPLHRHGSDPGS

| effect on Kv1.5 compared with acacetin, in words (Kv1.5; comparative study, Table 3) | IC50 (Kv1.5; [4]) [µM] | SMILES | IC50 (hERG channels) [µM] | other results |
| --- | --- | --- | --- | --- |
| – | – | Nc1ccncc1 [4-AP, reference compound] | – | rate dependence of APD50, APD75, APD90 prolongation, in words (human atrial myocytes; 50 μM 4-AP (data not shown)): reverse rate-dependent prolongation; action potential duration, in words (human atrial myocytes; 50 μM 4-AP, 2 Hz): prolonged APD50 more than APD90 |
| less effect | – | COc1ccc(-c2cc(=O)c3c(O)cc(OC(C)=O)cc3o2)cc1 [A-2-11] | – | inhibition at 100 µM (Kv1.5; [3]): < 50% |
| less effect | – | COc1ccc(-c2cc(=O)c3c(O)cc(OC(=O)c4ccccc4)cc3o2)cc1 [A-2-12] | – | inhibition at 100 µM (Kv1.5; [3]): < 50% |
| less effect | – | COc1ccc(-c2cc(=O)c3c(O)cc(OC)cc3o2)cc1 [A-2-13] | – | inhibition at 100 µM (Kv1.5; HEK293, read-out: Kv1.5 (IC50, μM)): < 50% |
| less effect | – | CCOc1cc(O)c2c(=O)cc(-c3ccc(OC)cc3)oc2c1 [A-2-14] | – | inhibition at 100 µM (Kv1.5; [3]): < 50% |
| – | 2.04 | COc1ccc(C(=O)Oc2cc(O)cc3oc(-c4ccc(OC)cc4)cc(=O)c23)cc1 [A-2] | 4.1 | ion channel selectivity for Kv1.5 and hERG channels compared with acacetin, in words (Kv1.5; comparative study, Table 3): less ion channel selectivity |
| less effect | 9 | COc1ccc(-c2cc(=O)c3ccccc3o2)cc1 [A-4] | – | – |
| less effect | 13.7 | COc1ccc(-c2cc(=O)c3cc(C)ccc3o2)cc1 [A-6] | – | – |
| no effects | > 100 | O=c1cc(-c2ccccc2)oc2cc(O)c(O)c(O)c12 [A-12] | > 100 | – |
| – | – | C=C[C@H]1C[N@@]2CC[C@H]1C[C@@H]2[C@@H](O)c1ccnc2ccc(OC)cc12 [Quinidine, quinidine] | – | QTc interval of ECG, in words (isolated rabbit hearts): prolonged QTc interval; heart rate, in words (isolated rabbit hearts): slowed heart rate; QTc interval of ECG, in words (isolated rabbit hearts; listed as quinidine): significantly increased |
| – | – | CC(C)NCC(O)c1ccc(NS(C)(=O)=O)cc1 (stereo not shown) [Sotalol, sotalol] | – | summarized anti-AF efficacy (anesthetized dogs [1]; 5 mg/kg intraduodenal, vehicle 0%): 60%; animals in which sustained AF was not observed (anesthetized dogs [1]; 5 mg/kg intraduodenal, vehicle: sustained AF in 100%): 40%; incidence of AF, in words (anesthetized dogs [1]; acacetin 2.5, 5, 10 mg/kg, sotalol 5 mg/kg, 1.5-2.5 h after intraduodenal administration): reduced the incidence of AF; left atrial ERP (ms), BCL 200 ms (anesthetized dogs [2]; BCL 200 ms, 2 h post-treatment): 105.1 ± 5.1 ms; left atrial ERP (ms), BCL 200 ms (anesthetized dogs [2]; [5]): 88.8 ± 3.7 ms; right atrial ERP (ms), BCL 200 ms (anesthetized dogs [2]; [5]): 88.7 ± 3.9 ms; left atrial ERP (ms), BCL 250 (anesthetized dogs [2]; [6]): 94.3 ± 3.1 ms; right atrial ERP (ms), BCL 250 (anesthetized dogs [2]; [6]): 96.3 ± 8.3 ms |

| SMILES | effect on Kv1.5 compared with acacetin, in words (Kv1.5; comparative study, Table 3) | IC50 (Kv1.5; [4]) [µM] | IC50 (hERG channels) [µM] | other results |
| --- | --- | --- | --- | --- |
| COc1ccc(-c2cc(=O)c3cc(Cl)ccc3o2)cc1 [A-5] | less effect | 23.5 | 13 | – |
| Oc1cc(O)c2c(c1)O[C@H](c1ccc(O)c(O)c1)[C@@H](O)C2 [A-9] | no effects | > 100 | > 100 | – |
| CC1OC(OCC2OC(Oc3c(-c4ccc(O)c(O)c4)oc4cc(O)cc(O)c4c3=O)C(O)C(O)C2O)C(O)C(O)C1O (stereo not shown) [A-11] | no effects | – | > 100 | IC50 (Kv1.5): > 100 µM |
